Patent publication US8741911B2, “Raf inhibitor compounds” (Eli Lilly and Company, priority 2012, dated 2014)
Read-outs that look alike come from different tables or passages of the source.

Tests used:
Type in all cases: cell-based
[1] = system: hematologic cancer cell lines with N-Ras mutations B-Raf wild type; assay: CellTiter-Glo proliferation and viability assay, N-Ras mutant hematologic panel; conditions: Homo sapiens; 7 of the 9 hematologic cancer cell lines with N-Ras mutations B-Raf wild type
Experimental: Additional N-RAS mutant B-Raf wild type hematologic cancer cell lines were tested for sensitivity to Example 1. N-Ras activating mutations are common in hematologic cancers occurring at a frequency of 10-30%. Two B-Raf V600E mutant melanoma cell lines (A-375 and SK-Mel-28), nine N-Ras mutant hematologic cell lines (HL-60, THP-1, TALL-1, C8166, H9, IM-9, GA-10 clone 4, P31-FUJ, MOLT-4) and seven N-Ras wild-type cell lines (LOUCY, HEL, U266, EB2, P30-OHK, NOMO-1, CCRF-CEM) were tested, and the IC50 data reported.

[2] = system: NCI-H2228; assay: CellTiter-Glo proliferation and viability assay; conditions: Homo sapiens
[3] = system: Hs746T; assay: CellTiter-Glo proliferation and viability assay; conditions: Homo sapiens
[4] = system: U-266; assay: CellTiter-Glo proliferation and viability assay; conditions: Homo sapiens, read-out: Abs IC50
[5] = system: A375; assay: CellTiter-Glo proliferation and viability assay; conditions: Homo sapiens
[6] = system: AGS; assay: CellTiter-Glo proliferation and viability assay; conditions: Homo sapiens
[7] = system: Colo205 cells; assay: CellTiter-Blue Colo-205 cell proliferation assay; conditions: Homo sapiens; Colo-205, CellTiter-Blue; read-out: Cell Proliferation Inhibition IC50
Experimental: (§1) Colo205 cells (catalog #HB-8307) are obtained from the American Type Culture Collection (ATCC, Manassas, Va.). Briefly, cells are grown in RPMI 1640 supplemented with 10% characterized fetal bovine serum (Invitrogen, Carlsbad, Calif.), 1 mM sodium pyruvate, and 1% Penicillin/Streptomycin/L-Glutamine at 37 degrees Celsius, 5% CO2, and 95% humidity. Cells are allowed to expand until reaching 30-60% confluency at which point they are subcultured or harvested for assay use. A serial dilution of test compound is dispensed into a 384-well black clear bottom plate in triplicate. One thousand two-hundred fifty cells are added per well in 50 μL complete growth medium in the 384-well plate. Plates are incubated for 67 hours at 37 degrees Celsius, 5% CO2, and 95% humidity. At the end of the incubation period, 10 μL of a 440 μM solution of resazurin (Sigma, St. Louis, Mo.) in PBS is added to each well of the plate and plates are incubated for an additional 5 hours at 37 degrees Celsius, 5% CO2, and 95% humidity. Plates are read on a Synergy2 reader (Biotek, Winooski, Vt.) using an excitation of 540 nm and an emission of 600 nm. Data is analyzed using Prism software (Graphpad, San Diego, Calif.) to calculate IC50 values.
(§2) The A375, HT-29, and Colo-205 cells (ATCC) harbor a V600E mutation.

[8] = system: 786-0; assay: CellTiter-Glo proliferation and viability assay; conditions: Homo sapiens
[9] = system: PC-3; assay: CellTiter-Glo proliferation and viability assay; conditions: Homo sapiens
[10] = system: 22RV1; assay: CellTiter-Glo proliferation and viability assay; conditions: Homo sapiens
[11] = system: LOVO; assay: CellTiter-Glo proliferation and viability assay; conditions: Homo sapiens
[12] = system: Hep3B2.1-7; assay: CellTiter-Glo proliferation and viability assay; conditions: Homo sapiens
[13] = system: SW900; assay: CellTiter-Glo proliferation and viability assay; conditions: Homo sapiens
[14] = system: BT-474; assay: CellTiter-Glo proliferation and viability assay; conditions: Homo sapiens
[15] = system: HEL; assay: CellTiter-Glo proliferation and viability assay; conditions: Homo sapiens, read-out: Abs IC50
[16] = system: GA-10-Clone-4; assay: CellTiter-Glo proliferation and viability assay; conditions: Homo sapiens
[17] = system: M059K; assay: CellTiter-Glo proliferation and viability assay; conditions: Homo sapiens
[18] = system: SNU-449; assay: CellTiter-Glo proliferation and viability assay; conditions: Homo sapiens
[19] = system: LN 229; assay: CellTiter-Glo proliferation and viability assay; conditions: Homo sapiens
[20] = system: HCT-116 cells; assay: CellTiter-Blue HCT-116 cell proliferation assay; conditions: Homo sapiens; HCT-116, CellTiter-Blue; read-out: Cell Proliferation Inhibition IC50
Experimental: as §1, with “HCT-116” for “Colo205”, “#CCL-247)” for “#HB-8307)”, “McCoy's 5A” for “RPMI 1640”, “Calif.),” for “Calif.), 1 mM sodium pyruvate,”, “75-90%” for “30-60%”, “Six hundred twenty-five” for “One thousand two-hundred fifty”
as §2

[21] = system: huH-1; assay: CellTiter-Glo proliferation and viability assay; conditions: Homo sapiens
[22] = system: NCI-H23; assay: CellTiter-Glo proliferation and viability assay; conditions: Homo sapiens
[23] = system: HCC70; assay: CellTiter-Glo proliferation and viability assay; conditions: Homo sapiens

- IC50 [1]: < 1000 nM
- IC50 ([2]; read-out: Abs IC50): > 20 nM
- IC50 ([2]; read-out: Rel IC50): 1.18 nM
- IC50 ([5]; A-375, A375, B-Raf V600E, melanoma): 9.2 nM
- IC50 ([6]; read-out: Abs IC50): 1.14 nM
- IC50 ([6]; read-out: Rel IC50): 0.34 nM
- IC50 [7]: 27 nM
- IC50 ([8]; read-out: Abs IC50): > 20 nM
- IC50 ([8]; read-out: Rel IC50): 4.58 nM
- IC50 ([9]; read-out: Abs IC50): > 20 nM
- IC50 ([9]; read-out: Rel IC50): > 20 nM
- IC50 ([10]; read-out: Abs IC50): 1.96 nM
- IC50 ([10]; read-out: Rel IC50): 0.19 nM
- IC50 ([11]; read-out: Abs IC50): 0.19 nM
- IC50 ([11]; read-out: Rel IC50): 0.12 nM
- IC50 ([12]; read-out: Abs IC50): 0.8 nM
- IC50 ([12]; read-out: Rel IC50): 0.36 nM
- IC50 ([13]; read-out: Abs IC50): 0.69 nM
- IC50 ([13]; read-out: Rel IC50): 0.23 nM
- IC50 ([14]; read-out: Abs IC50): 11.6 nM
- IC50 ([14]; read-out: Rel IC50): 10.9 nM
- IC50 ([18]; read-out: Abs IC50): 1.87 nM
- IC50 ([18]; read-out: Rel IC50): 2.01 nM
- IC50 [20]: 224 nM
- IC50 ([21]; read-out: Abs IC50): 1.99 nM
- IC50 ([21]; read-out: Rel IC50): 0.59 nM
- IC50 ([22]; read-out: Abs IC50): 6.27 nM
- IC50 ([22]; read-out: Rel IC50): 0.69 nM
SMILES: CNc1ncc2cc(-c3cc(NC(=O)NCCC(C)(C)C)c(F)cc3C)c(C)nc2n1 [Example 1, 1-(3,3-Dimethylbutyl)-3-(2-fluoro-4-methyl-5-(7-methyl-2-(methylamino)pyrido[2,3-d]pyrimidin-6-yl)phenyl)urea]
- IC50 ([3]; read-out: Abs IC50): 0.98 nM
- IC50 ([3]; read-out: Rel IC50): 0.76 nM
- IC50 [4]: 1.1 nM
- IC50 ([5]; A-375, parental A375 B-Raf V600E cells, comparison with A375res): 11 nM
- IC50 [15]: > 20 nM
- IC50 ([16]; read-out: Abs IC50): 0.2 nM
- IC50 ([16]; read-out: Rel IC50): 0.25 nM
- IC50 ([17]; read-out: Abs IC50): 15.1 nM
- IC50 ([17]; read-out: Rel IC50): 1.01 nM
- IC50 ([19]; read-out: Abs IC50): 1.22 nM
- IC50 ([19]; read-out: Rel IC50): 1.08 nM
- IC50 ([23]; read-out: Abs IC50): > 20 nM
- IC50 ([23]; read-out: Rel IC50): > 20 nM
